In patent US9982188B2, “Near-infrared emitters” (MISSOURI STATE UNIVERSITY, priority 2015, dated 2018):
Entries after “also recorded” stand apart in the source; their conditions may differ.

What was measured:
[1] = related amide-cyanoximes, Ref [1, 2] / [1, 3]; cited from earlier work
[2] = solubility observations in water and organic solvents; type: physicochemical
[3] = potentiometric pH titration for pKa (ionization constant); type: physicochemical; details: isopropyl alcohol (ISA)/water mixture, aqueous pKa, 23° C., Yasuda-Shedlovsky extrapolation to zero ISA
Experimental: Ionization constants for the new cyanoxime compound 1 [H(DECO)] were determined using a Sirius Analytical Instruments automated titration station (Sussex, UK) equipped with a temperature-controlled bath. The titration was performed three times at 23° C. in an isopropyl alcohol (ISA) water mixture as described below. The weighed amount of compound 1 (3.08 mg) was placed into a titration vial. Sixteen milliliters of ISA water was delivered automatically to the vial. The pH of the solution was adjusted to 10 by adding 0.5 M KOH automatically. The titration with 0.5M HCl was performed automatically until a pH value of 2.5 was reached. To perform the second and third titrations, an additional volume of ISA and water (1 mL and 1 mL) was delivered automatically to the titration vial, respectively. The datasets for the three titrations were combined in the RefinementPro program to create a Multiset for pKa calculation. Also, these datasets were combined and extrapolated to a zero ISA concentration.
The aqueous pKa was calculated with a Yasuda-Shedlovsky extrapolation in the RefinementPro software.

SMILES: N#C/C(=N\O)C(N)=O [H(ACO)]
- pKa (pH titration) [1]: 5.034 ± 0.002

SMILES: CN(C)C(=O)/C(C#N)=N/O [H(DCO)]
- pKa (pH titration) [1]: 5.52 ± 0.03

SMILES: CCN(CC)C(=O)/C(C#N)=N/O [compound 1, 2-cyano-2-oximino-N,N′-diethylaminoacetamide]
- solubility in organic solvents ([2]; solvent named in the value): soluble in most organic solvents except hydrocarbons
- solubility in water ([2]; water): not well soluble in water; also recorded: insoluble in water
- pKa [3]: 5.622 ± 0.005
